Results: ChEMBL document CHEMBL1148572, “1-((S)-2-aminopropyl)-1H-indazol-6-ol: a potent peripherally acting 5-HT2 receptor agonist with ocular hypotensive activity” (J Med Chem, 2006)

Experiments:
[1] = biological target: Dopamine receptor (Homo sapiens) (UniProt P14416+P35462+P21918+P21917+P21728); experiment: Inhibition of non selective binding to dopamine receptor at 1 nM; format: protein assay
[2] = Inhibition of P2Y purinergic receptor at 10 uM
[3] = biological target: Glutamate receptor ionotropic kainate (Homo sapiens) (UniProt P39086+Q16478+Q16099+Q13002+Q13003); experiment: Inhibition of kainate receptor at 100 nM; format: protein-complex assay
[4] = biological target: T1, Androgen receptor (Homo sapiens) (UniProt P10275); experiment: Inhibition of testosterone receptor at 100 nM
T1 sequence (whole entry): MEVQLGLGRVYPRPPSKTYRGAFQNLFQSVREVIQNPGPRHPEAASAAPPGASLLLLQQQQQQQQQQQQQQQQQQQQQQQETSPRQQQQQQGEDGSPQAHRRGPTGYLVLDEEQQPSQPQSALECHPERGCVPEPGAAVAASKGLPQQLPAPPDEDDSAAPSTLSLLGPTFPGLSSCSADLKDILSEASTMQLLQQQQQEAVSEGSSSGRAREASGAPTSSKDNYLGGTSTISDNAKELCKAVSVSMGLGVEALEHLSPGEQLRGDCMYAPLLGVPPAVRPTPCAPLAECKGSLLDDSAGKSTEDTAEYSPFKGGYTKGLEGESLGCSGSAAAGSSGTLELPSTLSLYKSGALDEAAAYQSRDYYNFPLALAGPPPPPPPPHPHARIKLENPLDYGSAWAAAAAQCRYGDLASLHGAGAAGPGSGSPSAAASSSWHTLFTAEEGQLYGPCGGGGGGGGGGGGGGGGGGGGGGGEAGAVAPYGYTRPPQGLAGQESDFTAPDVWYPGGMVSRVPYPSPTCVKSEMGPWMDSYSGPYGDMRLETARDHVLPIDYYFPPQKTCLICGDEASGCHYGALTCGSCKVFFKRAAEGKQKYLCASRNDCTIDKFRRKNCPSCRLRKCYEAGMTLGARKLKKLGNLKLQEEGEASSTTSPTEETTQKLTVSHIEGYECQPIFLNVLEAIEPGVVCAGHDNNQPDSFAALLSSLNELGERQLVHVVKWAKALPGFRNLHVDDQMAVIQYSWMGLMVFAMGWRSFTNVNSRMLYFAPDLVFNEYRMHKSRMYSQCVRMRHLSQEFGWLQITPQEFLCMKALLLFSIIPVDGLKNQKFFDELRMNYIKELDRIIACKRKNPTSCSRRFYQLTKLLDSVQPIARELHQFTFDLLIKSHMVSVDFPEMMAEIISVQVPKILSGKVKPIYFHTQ

[5] = biological target: T2, Glutamate [NMDA] receptor (Homo sapiens) (UniProt Q05586+Q12879+Q13224+O15399+O60391+Q14957+Q8TCU5); experiment: Inhibition of agonist site of NMDA receptor at 100 nM; format: functional
[6] = biological target: T3, Endothelin-1 receptor (Homo sapiens) (UniProt P25101); experiment: Inhibition of human recombinant endothelin 1 receptor 1 nM
T3 sequence (whole entry): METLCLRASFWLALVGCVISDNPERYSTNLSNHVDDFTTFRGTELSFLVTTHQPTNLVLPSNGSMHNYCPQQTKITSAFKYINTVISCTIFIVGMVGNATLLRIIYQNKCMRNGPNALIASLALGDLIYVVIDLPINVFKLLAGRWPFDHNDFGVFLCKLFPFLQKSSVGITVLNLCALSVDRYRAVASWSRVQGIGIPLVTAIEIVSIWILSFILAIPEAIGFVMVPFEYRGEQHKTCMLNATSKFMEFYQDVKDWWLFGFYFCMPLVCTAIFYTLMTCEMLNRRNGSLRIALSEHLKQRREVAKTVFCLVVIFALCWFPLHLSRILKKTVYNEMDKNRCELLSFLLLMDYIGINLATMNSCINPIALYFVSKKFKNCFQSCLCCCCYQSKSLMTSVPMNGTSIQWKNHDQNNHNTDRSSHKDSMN

[7] = biological target: T4, 5-hydroxytryptamine receptor 1A (Homo sapiens) (UniProt P08908); experiment: Inhibition of forskolin activated adenylate cyclase at 1 nM; format: functional
T4 sequence (whole entry): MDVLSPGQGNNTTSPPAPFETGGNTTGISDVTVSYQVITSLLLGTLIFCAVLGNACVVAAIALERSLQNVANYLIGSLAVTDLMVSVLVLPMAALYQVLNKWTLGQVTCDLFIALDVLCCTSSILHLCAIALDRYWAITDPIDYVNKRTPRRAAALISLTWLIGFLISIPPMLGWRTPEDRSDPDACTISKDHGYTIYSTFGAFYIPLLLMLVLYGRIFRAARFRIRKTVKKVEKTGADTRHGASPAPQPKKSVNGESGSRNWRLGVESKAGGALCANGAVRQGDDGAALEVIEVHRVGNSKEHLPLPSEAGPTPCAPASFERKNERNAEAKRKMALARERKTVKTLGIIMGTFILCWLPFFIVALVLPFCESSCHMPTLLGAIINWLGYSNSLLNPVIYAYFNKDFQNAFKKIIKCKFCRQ

[8] = biological target: T1, Androgen receptor (Homo sapiens); experiment: Inhibition of testosterone receptor at 1 nM
[9] = Inhibition of P2Y purinergic receptor at 1 nM
[10] = biological target: Sigma non-opioid intracellular receptor 1 (Homo sapiens) (UniProt Q99720); experiment: Inhibition of non selective binding to sigma receptor at 1 nM
[11] = Inhibition of non selective binding to VIP at 10 uM
[12] = biological target: Opioid receptors; mu/kappa/delta (Homo sapiens) (UniProt P41145+P41143+P35372); experiment: Inhibition of non selective binding to opiate receptor at 100 nM; format: protein assay
[13] = biological target: T2, Glutamate [NMDA] receptor (Homo sapiens); experiment: Inhibition of MK-801 site of glutamate receptor at 100 nM; format: protein-complex assay
[14] = biological target: Glutamate receptor ionotropic AMPA (Homo sapiens) (UniProt P48058+P42263+P42262+P42261); experiment: Inhibition of AMPA receptor at 1 nM; format: protein-complex assay
[15] = biological target: GABA-A receptor; benzodiazepine site (Homo sapiens) (UniProt P14867+P18507+P48169+Q99928+P34903+Q8N1C3+P47869+P31644+Q16445); experiment: Inhibition of central benzodiazepine site on GABAA receptor at 1 nM; format: protein-complex assay

Chain of Sigma non-opioid intracellular receptor 1 (Homo sapiens) (Q99720 whole entry): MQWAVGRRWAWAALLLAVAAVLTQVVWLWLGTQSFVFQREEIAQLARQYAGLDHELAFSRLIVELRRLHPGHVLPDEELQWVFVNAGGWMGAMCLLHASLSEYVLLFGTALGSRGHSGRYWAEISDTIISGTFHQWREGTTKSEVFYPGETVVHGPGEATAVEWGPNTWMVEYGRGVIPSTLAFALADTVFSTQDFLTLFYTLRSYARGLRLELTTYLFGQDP
Chain of Opioid receptors; mu/kappa/delta (Homo sapiens) (P35372 whole entry, looked up): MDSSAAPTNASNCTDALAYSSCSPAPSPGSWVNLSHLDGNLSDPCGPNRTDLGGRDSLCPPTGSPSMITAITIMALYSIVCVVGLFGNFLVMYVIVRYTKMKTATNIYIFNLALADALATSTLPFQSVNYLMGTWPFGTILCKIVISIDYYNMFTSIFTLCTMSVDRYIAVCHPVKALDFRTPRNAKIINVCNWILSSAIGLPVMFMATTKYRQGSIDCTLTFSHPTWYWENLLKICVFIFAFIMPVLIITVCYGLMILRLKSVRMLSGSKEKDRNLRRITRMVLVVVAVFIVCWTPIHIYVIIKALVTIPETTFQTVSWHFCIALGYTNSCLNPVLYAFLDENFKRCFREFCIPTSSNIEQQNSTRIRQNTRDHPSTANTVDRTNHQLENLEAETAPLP
Chain of Opioid receptors; mu/kappa/delta (Homo sapiens) (P41143 whole entry, looked up): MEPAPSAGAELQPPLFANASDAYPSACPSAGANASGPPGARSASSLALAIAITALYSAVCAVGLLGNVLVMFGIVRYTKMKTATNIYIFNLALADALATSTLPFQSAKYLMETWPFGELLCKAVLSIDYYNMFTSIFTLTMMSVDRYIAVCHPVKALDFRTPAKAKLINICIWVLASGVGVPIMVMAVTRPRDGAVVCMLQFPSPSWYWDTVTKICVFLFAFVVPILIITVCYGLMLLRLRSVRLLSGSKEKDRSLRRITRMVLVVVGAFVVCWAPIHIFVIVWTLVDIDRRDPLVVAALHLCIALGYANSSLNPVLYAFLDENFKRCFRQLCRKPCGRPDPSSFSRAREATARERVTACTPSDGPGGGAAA
Chain of Opioid receptors; mu/kappa/delta (Homo sapiens) (P41145 whole entry, looked up): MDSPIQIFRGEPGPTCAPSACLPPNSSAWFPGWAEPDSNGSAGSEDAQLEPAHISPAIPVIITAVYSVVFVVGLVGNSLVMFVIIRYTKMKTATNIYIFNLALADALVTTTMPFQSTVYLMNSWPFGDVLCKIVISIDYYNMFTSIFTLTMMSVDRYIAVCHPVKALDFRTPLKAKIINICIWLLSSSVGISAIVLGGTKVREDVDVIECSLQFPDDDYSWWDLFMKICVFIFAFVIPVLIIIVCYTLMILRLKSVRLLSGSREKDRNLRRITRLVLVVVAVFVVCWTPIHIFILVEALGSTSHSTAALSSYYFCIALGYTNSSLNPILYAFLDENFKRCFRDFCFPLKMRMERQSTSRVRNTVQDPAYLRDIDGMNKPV

Structure (SMILES): C[C@H](N)Cn1ncc2ccc(O)cc21
- inhibition [1]: 10.7%
- inhibition [2]: 12.2%
- inhibition [3]: 6.16%
- inhibition [4]: 0.86%
- inhibition [5]: 15.7%
- inhibition [6]: 2.41%
- inhibition [7]: 2.48%
- inhibition [8]: 0.47%
- inhibition [9]: -2.2%
- inhibition [10]: -2.35%
- inhibition [11]: -5.59%
- inhibition [12]: -2.14%
- inhibition [13]: 11.4%
- inhibition [14]: 9.31%
- inhibition [15]: 19.6%
